# Reference: patent publication US20040157910A1, “Method of treatment or prophylaxis” (SmithKline Beecham Corporation, priority 2003, published 2004)
# Structures can show the parent of a compound that is named as a salt.
# What was measured:
# Restless Legs Syndrome [1] = details: RLS, cited from earlier work
# Restless Legs Syndrome [2] = details: RLS; well controlled studies prior to 1987; cited from earlier work
# Restless Legs Syndrome [3] = test: RLS patients treated with ropinirole (patient reports); type: in vivo, human; details: almost at once
smiles,measurement,setting,value
N[C@@H](Cc1ccc(O)c(O)c1)C(=O)O [L-dopa],time for which the effect has been maintained,Restless Legs Syndrome [1]; L-dopa,2 years
same,patients in whom treatment was effective,Restless Legs Syndrome [1]; doses of L-dopa of 100 mg to 200 mg,70 % of patients
NC(=O)N1c2ccccc2C=Cc2ccccc21 [carbamazepine],efficacy compared with placebo,Restless Legs Syndrome [2],superior to placebos
O=C1CN=C(c2ccccc2Cl)c2cc([N+](=O)[O-])ccc2N1 [clonazepam],efficacy compared with placebo,Restless Legs Syndrome [2],superior to placebos
"CCCN(CCC)CCc1cccc2c1CC(=O)N2 [ropinirole, 4-[2-(di-n-propylamino)ethyl]-1,3-dihydro-2H-indolin-2-one hydrochloride]",improvement in condition reported by RLS patients,Restless Legs Syndrome [3],dramatic improvement
